Reference: US9920295B2, “Bioreactor for isolation of rare cells and methods of use” (The Trustees of the University of Pennsylvania, priority 2012, dated 2018)
Read-outs that look alike come from different tables or passages of the source.

What was measured:
MKs = experiment: Proplatelet extension quantification; format: cell-based, human
Description: Three-dimensional collagen gels embedded with cells were prepared as previously published (Rhee et al., 2007, Proc Natl Acad Sci USA, 104:5425-5430). BM-derived cells were added to the collagen solution prepared by neutralizing 2.0 mg/mL collagen-I (BD Biosciences) with HSC expansion media adjusted to appropriate the pH, so that cells could be embedded to the polymerized matrices (1×10^5 cells/mL). Next, 200 μL of this collagen mixture was placed in a well of 24-well plate and incubated at 37° C. 5% CO2 overnight before being formaldehyde-fixed and processed for microscopic analysis. Washing steps were done gently using pipette to minimize disturbance of gels. After completion of staining, matrices were released from the plate by gentle shaking and transferred to glass slides in mounting medium with either a spatula or gentle pipetting.
Cells on coverslips were fixed with 4% paraformaldehyde, followed by permeabilization with 0.5% Triton X-100 in PBS for 15 min and blocking with 1% BSA in PBS for 30 min. Samples were then stained with primary antibodies (1:100 for all antibodies used) overnight at 4° C. After washing, staining with appropriate Alexa-conjugated secondary antibodies (1:400) was performed for 45 min at room temperature. Cells were washed three times with PBS and mounted in ProLong Gold antifade medium (Invitrogen). Samples were then analyzed by fluorescence microscopy. For quantitative analysis, pictures from each experiment were taken under a defined set of exposure times on the same day with 40× objectives. Intensity of labeled NMM-II proteins for each cell was analyzed by ImageJ by subtracting a background, defining a threshold of cell boundary, followed by calculation of mean intensity. At least 10 images from each experiment were analyzed from three independent experiments. For proplatelet quantification, the process length from each cell was measured by manual tracing with ImageJ. Only processes above detection limit (≥1 μm in length from cell body) were considered for statistical analysis.

[1] = test system: CD34+-derived cells (CFU-GM, BFU-E); experiment: Colony forming assay; format: cell-based, human
Description: 1000-3000 CD34^+-derived cells were seeded into methylcellulose containing media (MethoCult H4434, StemCell Technologies) supplemented with SCF, GM-CSF, IL-3, Epo. They were cultured for 14 days and colonies were scored at 10× magnification based on the published morphological criteria by StemCell Technoloigies. Colony forming content was normalized per 10,000 cells seeded.

- IC50 ([1]; SCF and Tpo, n≥3 donors, read-out: BFU-E IC50): 18.6 µM
- IC50 ([1]; SCF and Tpo, n≥3 donors, read-out: CFU-GM IC50): 10.5 µM
- IC50 ([1]; absence of Epo, n=3 donors, read-out: BFU-E relative to CFU-GM IC50): 10 µM
SMILES: Cc1ccc2c(c1)C(=O)C1(O)CCN(c3ccccc3)C1=N2 (racemic) [blebbistatin, (±)-blebbistatin]
- increase in mean length of proplatelet extensions (MKs; cells grown on plastic): approximately threefold
- effect on proplatelet extensions (MKs; cells in 3D collagen gels or on stiff, osteoid-like matrices): no effect
- average proplatelet extension velocity (MKs; live imaging): ~1 μm/min
- concentration under which BFU-E and CFU-GEMM numbers are not changed [1]: ~15 µM
- concentration of maximum BFU-E relative to CFU-GM ratio ([1]; absence of Epo): 12.5 µM
- increase of BFU-E to CFU-GM ratio ([1]; at 12.5 μM): 2 fold
